# Test: Plasma protein binding in healthy geriatric volunteer by equilibrium dialysis method
# Format: ADME, cell-free
# Conditions: human, read-out: PPB
compound,measurement,value
CC(C)(O)C(=O)Nc1ccc([N+](=O)[O-])c(C(F)(F)F)c1 [HYDROXYFLUTAMIDE],fraction unbound,< 0.06

# Reference: ChEMBL document CHEMBL3784969, “Pharmacokinetics of flutamide in patients with renal insufficiency” (Br J Clin Pharmacol, 1999)
